15 molecules from US4303660A, “Pyrazolo[1,5-c]quinazoline derivatives and analgesic compositions containing them” (priority 1979, dated 1981) can be followed below.

Data set [1] is described as follows: in vivo. As to conditions: printed under the reference substance in Table III.
Data set [2] relates to gastric acid secretion. The format is in vivo, rats. The conditions noted are these: for Inhibition of gastric acid secretion, percentage: rats. The text has this: The influence of the compounds of the invention on the gastric acid secretion was studied on rats weighing 170 to 260 g according to Shay [Gastroenterology, 5, 43 (1945)].
The test system of data set [3] is acetic acid writhing. Description: Acetic acid writhing test (analgesic activity). The conditions noted are these: for ED50: Mus musculus, read-out: ED50 p.o. The procedure: The analgesic activity was studied by means of the acetic acid writhing test on mice. After the intraperitoneal administration of 0.4 ml of 0.5 percent acetic acid, the writhing responses were counted between the 5 and 10 minutes. The writhing number was calculated as the percentage of the control value. The compounds tested were orally administered to the animals 1 hour prior to the treatment with acetic acid. […] Paracetamole [p-hydroxyacetanilide] and phenylbutazon [4-butyl-1,2-diphenylpyrazolidine-3,5-dione] were used as reference substance.
For orientation: In writhing tests, fewer writhes than in controls are read as antinociception.

Data set [4] is described as follows: Acute toxicity. As to conditions: mouse, in vivo; oral; mice weighing 18 to 22 g. How it is done: The acute toxicity of the pyrazolo[1,5-c]quinazoline derivatives of the general formula I were determined on mice weighing 18 to 22 g. The compounds were administered orally.
Data set [5] concerns small intestine. The data set is described as follows: Antiperistaltic effect (carbon suspension, small intestine). It counts as in vivo, mice. As to conditions: for ED50: Mus musculus, read-out: ED50 p.o. How it is done: The antiperistaltic effect of the compounds of the invention was examined on groups of mice consisting of 10 animals. Each dosis of the compound to be tested was administered to one group, orally, 60 minutes prior to the administration of a 10 percent carbon suspension. 20 minutes after the administration of the carbon suspension, the animals were sacrificed and the length of the entire small intestine as well as that of the small intestine filled with carbon were determined. The reference substance used was papaverine [1-(3,4-dimethoxybenzyl)-6,7-dimethoxyisoquinoline].

[6] abbreviates: antiperistaltic effect, oral, 60 minutes prior to 10 percent carbon suspension, mice.

Like-named read-outs stand apart in the source and are kept apart here.

The term LD50 denotes the dose expected to kill half of the subjects tested. Molecule `CCCN(CCC)C(=O)C(CCC(=O)O)NC(=O)c1ccccc1` (racemic) [proglumide, D,L-4-benzamido-N,N-dipropylglutaramic acid, reference compound] had an LD50 in data set [1] of 2780 mg/kg. Moreover, the “Inhibition of gastric acid secretion, percentage” value (shortened to “Inhibition … percentage”) in data set [2] (200 mg/kg p.o.) is “about 20 percentage”. Also, in data set [2] (gastric acid secretion, p.o.), the Therapeutic index worked out at 11.4.

For orientation: ED50 means the midpoint of the dose-response relation. Turning to `O=[N+]([O-])c1cnn2cnc3ccccc3c12` [Example 1, 1-Nitropyrazolo[1,5-c]quinazoline], the figures for the ED50 in data set [3] (po) and in data set [5] (setting [6]) were 50 mg/kg and 18 mg/kg, respectively. The Therapeutic index in data set [3] (mouse, in vivo, po) is given as 40; in data set [5] (mouse, in vivo, po) it was 111. For the same molecule, the LD50 in data set [4] was 2000 mg/kg.

Regarding `Cc1nc2ccccc2c2c([N+](=O)[O-])cnn12` [Example 3, 1-Nitro-5-methylpyrazolo[1,5-c]quinazoline], the LD50 in data set [4] was 2000 mg/kg. The ED50 in data set [5] (setting [6]) is 400 mg/kg. This molecule also registered a Therapeutic index in data set [5] (mouse, in vivo, po) of 5.

For `CC(=O)Nc1cnn2cnc3ccccc3c12` [Example 5, 1-Acetaminopyrazolo[1,5-c]quinazoline], the figures for the “Inhibition … percentage” value in data set [2] (70 mg/kg p.o.) and in data set [2] (100 mg/kg p.o.) were “about 50 percentage” and 93 percentage, respectively. Besides, the Therapeutic index in data set [2] (rat, in vivo, po) is 28.6; in data set [5] (mouse, in vivo, po), 5. Further, in data set [4], the LD50 turned out to be 2000 mg/kg. The ED50 in data set [5] (setting [6]) was determined as 400 mg/kg.

As to `CC1(C)Nc2ccccc2-c2c([N+](=O)[O-])cnn21` [Example 9, 1-Nitro-5,5-dimethyl-5,6-dihydropyrazolo[1,5-c]quinazoline], the LD50 in data set [4] stood at 2000 mg/kg. In addition, the ED50 in data set [5] (setting [6]) stood at 400 mg/kg. The molecule also yielded a Therapeutic index in data set [5] (mouse, in vivo, po) of 5.

For `CC(=O)N1c2ccccc2-c2c([N+](=O)[O-])cnn2C1C` (stereo not drawn) [Example 27, 1-Nitro-5-methyl-6-acetyl-5,6-dihydropyrazolo[1,5-c]quinazoline], the “Inhibition … percentage” value was 33 percentage in data set [2] (50 mg/kg p.o.), “about 50 percentage” in data set [2] (62 mg/kg p.o.) and 82 percentage in data set [2] (100 mg/kg p.o.). For the same molecule, the Therapeutic index came to 32.3 in data set [2] (rat, in vivo, po) and 40 in data set [5] (mouse, in vivo, po). Also, the LD50 in data set [4] came out at 2000 mg/kg. Besides, the ED50 in data set [5] (setting [6]) came out at 50 mg/kg.

For the molecule `CC(=O)N1c2ccccc2-c2c([N+](=O)[O-])cnn2C1(C)C` [Example 31, 1-Nitro-5,5-dimethyl-6-acetyl-5,6-dihydropyrazolo[1,5-c]quinazoline], in data set [4], the LD50 came to 2000 mg/kg. Further, the ED50 in data set [5] (setting [6]) turned out to be 50 mg/kg. Moreover, the Therapeutic index in data set [5] (mouse, in vivo, po) worked out at 40.

As to `CC(=O)Nc1cnn2c1-c1ccccc1NC2(C)C` [Example 33, 1-Acetamino-5,5-dimethyl-5,6-dihydropyrazolo[1,5-c]quinazoline], the LD50 in data set [4] amounted to 2000 mg/kg. The ED50 in data set [5] (setting [6]) turned out to be 45 mg/kg. Besides, the Therapeutic index in data set [5] (mouse, in vivo, po) was 45.

On to `CC(=O)Nc1cnn2c1-c1ccccc1N(C(C)=O)C2(C)C` [Example 34], for which the ED50 in data set [3] (po) came to 25 mg/kg; in data set [5] (po) it was 60 mg/kg. Further, the Therapeutic index in data set [3] (analgesic activity test, p.o.) amounted to 80; in data set [5] (antiperistaltic effect, p.o.), 33. In data set [4], this molecule yielded an LD50 of 2000 mg/kg.

Molecule `CC(=O)Nc1cnn2c1-c1ccccc1N(C(C)=O)C2C` (stereo not drawn) [Example 35, 1-Acetamino-5-methyl-6-acetyl-5,6-dihydropyrazolo[1,5-c]quinazoline] gave a 50% lethal dose (LD50) in data set [4] of 2000 mg/kg. In addition, in data set [5] (setting [6]), the ED50 was 145 mg/kg. For the same molecule, the Therapeutic index in data set [5] (mouse, in vivo, po) is 14.

Consider `CC(=O)Nc1cnn2c(C)nc3ccccc3c12` [Example 36, 1-Acetamino-5-methylpyrazolo[1,5-c]quinazoline], for which the “Inhibition … percentage” value is recorded as 30 percentage in data set [2] (50 mg/kg p.o.), “about 50 percentage” in data set [2] (65 mg/kg p.o.) and 73 percentage in data set [2] (100 mg/kg p.o.). The Therapeutic index in data set [2] (rat, in vivo, po) is 27.7; in data set [5] (mouse, in vivo, po), 5. The LD50 in data set [4] amounted to 1800 mg/kg. Also, the ED50 in data set [5] (setting [6]) was found to be 360 mg/kg.

In the case of `CN/C(=N/CCSCc1nc[nH]c1C)NC#N` [cimetidine, 1-methyl-3-[2-(5-methylimidazol-4-yl-methylthio)ethyl]guanidine-2-carbonitrile, reference compound], the LD50 in data set [1] stood at 470 mg/kg. In addition, the “Inhibition … percentage” value in data set [2] (50 mg/kg p.o.) is listed as 45 percentage. This molecule came in with a Therapeutic index in data set [2] (rat, in vivo, po) of 9.4.

On to `COc1ccc(Cc2nccc3cc(OC)c(OC)cc23)cc1OC` [papaverine, 1-(3,4-dimethoxybenzyl)-6,7-dimethoxyisoquinoline, reference compound], for which the ED50 in data set [5] (po) came to 180 mg/kg. The molecule also yielded a Therapeutic index in data set [5] (antiperistaltic effect, p.o.) of 3.4.

On to `CC(=O)Nc1ccc(O)cc1` [paracetamole, p-hydroxyacetanilide, reference compound], for which, in data set [3] (po), the ED50 was 180 mg/kg. Also, the Therapeutic index in data set [3] (analgesic activity test, p.o.) is 2,8.

In the case of `CCCCC1C(=O)N(c2ccccc2)N(c2ccccc2)C1=O` [phenylbutazon, 4-butyl-1,2-diphenylpyrazolidine-3,5-dione, reference compound], the ED50 in data set [3] (po) is 60 mg/kg. The Therapeutic index in data set [3] (mouse, in vivo, po) was 16,6.
